Legend:
Type in all cases: cell-based, human
[1] = tested on: platelet function in whole blood; assay: Closure time under flow conditions, PFA-100 Col/Epi test cartridge; conditions: for Number of samples with closure times above the cut-off (n = 11): cut-off 158 seconds, ASA 30 μmol/L
Method: (§1) Venous blood was taken from 11 healthy donors and anticoagulated with sodium citrate (3.2% buffered Na citrate).
(§2) Aliquots of the citrated whole blood sample were treated in vitro with the P2Y(12) antagonist MRS 2395 (Sigma-Aldrich Chemie GmbH, Steinheim, Germany). For this purpose an ethanolic MRS 2395 stock solution (15 mg/mL) was mixed with the whole blood samples so that an end concentration of 100 μmol/L was obtained.
(§3) Further aliquots of the citrated whole blood samples were treated in vitro with the COX-1 inhibitor acetylsalicylic acid (abbr.: ASA; Sigma-Aldrich Chemie GmbH, Steinheim, Germany). For this purpose an aqueous ASA stock solution (1 mg/mL) was mixed with whole blood samples so that an end concentration of 30 μmol/L was obtained.
(§4) After addition of the reagents the blood samples were incubated at room temperature for 5 minutes.
(§5) Venous blood was taken from healthy donors and anticoagulated with sodium citrate (3.2% buffered Na citrate). The closure time determination was carried out for each whole blood sample in the PFA-100® apparatus. Samples from 186 donors were determined in duplicate with a Col/Epi PFA-100® test cartridge [see Example 1d)] and a Col/ADP PFA-100® test cartridge [see Example 1d)].
(§6) The reference ranges (normal range) for the Col/Epi closure time and the Col/ADP closure time were established in that the measurement value ranges determined in which 90% of the measurement values for the healthy subjects were found (90% central interval of the normal distribution of all measurements). This gave the following reference ranges for the closure times:
(§7) The upper reference limit of the reference range was defined as cut-off, i.e. as threshold value, for a platelet dysfunction. If the closure time of a patient sample deviates from the reference range it can indicate a platelet dysfunction. This means Col/Epi closure times that are greater than 158 seconds and Col/ADP closure times that are greater than 115 seconds indicate the presence of a platelet dysfunction within the sense of a reduced aggregation efficiency.
(§8) To determine the closure time using a Col/Epi PFA-100® test cartridge (2 μg of collagen and 10 μg of epinephrine on the partition member; 150 μm aperture diameter; Dade Behring Marburg GmbH, Marburg, Germany) and using a Col/ADP PFA-100® test cartridge (2 μg of collagen and 50 μg of ADP on the partition member; 150 μm aperture diameter; Dade Behring Marburg GmbH, Marburg, Germany) as measure of platelet function, whole blood samples described in Example 1a) were investigated in a PFA-100® apparatus (Platelet Function Analyzer-100, Dade Behring Marburg GmbH, Marburg, Germany).
(§9) Aliquots of the samples described in 1a) were taken and mixed according to the invention either with prostaglandin E1 (abbr.: PGE1) or with forskolin (both purchased from Sigma-Aldrich Chemie GmbH, Steinheim, Germany) for activating intracellular adenylate cyclases. For this purpose, the samples were mixed with an ethanolic PGE1 stock solution (0.05 mg/mL) or with an ethanolic forskolin stock solution (5 mg/mL) to reach a final concentration of 12.5 nM PGE1 or a final concentration of 1 μM forskolin. Further aliquots of the samples described in 1a) were not mixed with an activator of intracellular adenylate cyclases and served as control.
(§10) Then in each case 800 μl of the blood samples mixed with PGE1 or forskolin, or of the control samples were put into the reservoir of a Col/Epi or Col/ADP test cartridge (+37° C.) and incubated in the apparatus at +37° C. for 3 minutes. A partial vacuum of −40 mbar was generated by the apparatus, thus sucking the blood out of the reservoir through the capillary (diameter 200 μm) and finally through the opening (aperture) of the partition member into the measurement chamber. The closure time was determined as the time required until the aperture was closed by formation of a blood clot. […]

[2] = tested on: platelet aggregation in platelet rich plasma; assay: ADP induced light transmission aggregometry (according to Born); conditions: 100 μmol/L MRS 2395 in vitro; PRP; 5 μM ADP
Method: as §1, §2, §4
In order to check whether the samples treated with MRS 2395 actually show a reduced platelet aggregation, platelet rich (PRP) and platelet poor (PPP) plasma was prepared from aliquots of the untreated and MRS 2395-treated whole blood samples described under Example 1a). Then the samples were treated with 5 μM ADP. The PPP samples were used as blank controls. The photometric measurement of the aggregation reaction was carried out in the automated coagulation apparatus BCT® (Dade Behring Marburg GmbH, Marburg, Germany) under continuous stirring (600 rpm). The platelet aggregation of the samples treated with MRS 2395 was reduced by a mean of 27% compared with the platelet aggregation of the untreated samples.

[3] = tested on: platelet function in whole blood; assay: Closure time under flow conditions, PFA-100 Col/ADP test cartridge; conditions: for Number of samples with closure times above the cut-off (n = 11): cut-off 115 seconds, ASA 30 μmol/L
Method: as §1, §2, §3, §4, §5, §6, §7, §8, §9, §10

[4] = +1 μM forskolin, MRS 2395 100 μmol/L
[5] = Control (no activator), MRS 2395 100 μmol/L
[6] = normal untreated whole blood, 12.5 nM PGE1 or 1 μM forskolin
[7] = +12.5 nM PGE1, MRS 2395 100 μmol/L
[8] = +1 μM forskolin, MRS 2395 100 μmol/L, listed as ASA

## CNc1nc(Cl)nc2c1ncn2CC(COC(=O)C(C)(C)C)COC(=O)C(C)(C)C [MRS 2395, 2,2-dimethyl-propionic acid 3-(2-chloro-6-methylaminopurin-9-yl)-2-(2,2-dimethyl-propionyloxymethyl)-propyl ester]
[1]; [4]
  Number of samples with closure times above the cut-off (n = 11): 9
[1]; [5]
  Number of samples with closure times above the cut-off (n = 11): 3
[2]
  platelet aggregation reduced compared with the untreated samples (mean): 27%
[3]; [4]
  Number of samples with closure times above the cut-off (n = 11): 10
[3]; [5]
  Number of samples with closure times above the cut-off (n = 11): 2

## CCCCC[C@H](O)/C=C/[C@H]1[C@H](O)CC(=O)[C@@H]1CCCCCCC(=O)O [prostaglandin E1]
[1]; [6]
  prolongation of the closure times of the controls: significant prolongation
[3]; [6]
  prolongation of the closure times of the controls: Neither the amount of forskolin used nor the amount of prostaglandin E1 used led to a significant prolongation

## CC(=O)Oc1ccccc1C(=O)O [Acetylsalicylic acid, acetylsalicylic acid]
[1]; [7]
  Number of samples with closure times above the cut-off (n = 11): 11
[1]; +12.5 nM PGE1, MRS 2395 100 μmol/L, listed as ASA
  Number of samples with closure times above the cut-off (n = 11): all
[1]; [4]
  Number of samples with closure times above the cut-off (n = 11): 11
[1]; [8]
  Number of samples with closure times above the cut-off (n = 11): all
[1]; [5]
  Number of samples with closure times above the cut-off (n = 11): 8
[3]; [7]
  Number of samples with closure times above the cut-off (n = 11): 4
[3]; [4]
  Number of samples with closure times above the cut-off (n = 11): 0
[3]; [8]
  Number of samples with closure times above the cut-off (n = 11): none
[3]; [5]
  Number of samples with closure times above the cut-off (n = 11): 1

— patent publication US20070254324A1, “Method for determination of platelet function under flow conditions” (DADE BEHRING MARBURG GmbH, priority 2006, published 2007)
